6 compounds from PubChem BioAssay AID220 (DTP/NCI, 2004) can be followed below.

Where “and” joins values, the source holds several entries; their conditions need not be identical. Equal entries are not always repeated. Inconclusive results are not listed.

The test system of the test is CD8F1 mice, subcutaneous mammary adenocarcinoma, T/C%. In words: NCI In Vivo Anticancer Drug Screen. Data for tumor model Mammary Adenocarcinoma CD8F1 (subcutaneous) in CD8F1. As to conditions: higher = larger tumour. An outline of the steps: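 Transplantable tumors were established in mice, animals were dosed with compound or vehicle, and survival or tumor size was then measured in both groups. The treated result was divided by the control result.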

Setting [1] is: endpoint: median tumor weight (est.), dose: 12.5 mg/kg/injection, schedule: Q07DX005 (ip), vehicle: suspension in saline.
The mark [2] stands for this setting: endpoint: median tumor weight (est.), dose: 25.0 mg/kg/injection, schedule: Q07DX005 (ip), vehicle: suspension in saline.
Setting [3] is: endpoint: median tumor weight (est.), dose: 50.0 mg/kg/injection, schedule: Q07DX005 (ip), vehicle: suspension in saline.
Setting [4] is: endpoint: median tumor weight (est.), dose: 100.0 mg/kg/injection, schedule: Q07DX005 (ip), vehicle: suspension in saline.
The mark [5] stands for this setting: endpoint: median tumor weight (est.), dose: 400.0 mg/kg/injection, schedule: Q07DX005 (ip), vehicle: suspension in saline.

As for `N/C(=N\OC(=O)Nc1ccc(CSc2ccc(Cl)cc2)o1)c1ccccn1`, the T/C reads like this: (endpoint: median tumor weight change, dose: 62.0 mg/kg/injection, schedule: Q01DX001 (ip), vehicle: Klucel (hydroxypropylcellulose) (HPC)) 64 % of control; (endpoint: median tumor weight change, dose: 125.0 mg/kg/injection, schedule: Q01DX001 (ip), vehicle: Klucel (hydroxypropylcellulose) (HPC)) 99 % of control; (endpoint: median tumor weight change, dose: 250.0 mg/kg/injection, schedule: Q01DX001 (ip), vehicle: Klucel (hydroxypropylcellulose) (HPC)) 80 % of control.

With `C=CC(=O)NCNC(=O)C=C`, the T/C runs as follows: under setting [1], 104 % of control; under setting [2], 85 % of control; under setting [3], 80 % of control; under setting [4], 43 % of control; (endpoint: median tumor weight (est.), dose: 200.0 mg/kg/injection, schedule: Q07DX005 (ip), vehicle: suspension in saline) 32 % of control; under setting [5], 9 % of control. For the same compound, the T/C is 78 % of control (endpoint: median tumor weight change, dose: 62.5 mg/kg/injection, schedule: Q01DX001 (ip), vehicle: saline); 90 % of control (endpoint: median tumor weight change, dose: 62.5 mg/kg/injection, schedule: Q01DX001 (ip), vehicle: suspension in saline); 105 % of control (endpoint: median tumor weight change, dose: 72.0 mg/kg/injection, schedule: Q01DX001 (ip), vehicle: saline); 150 % of control (endpoint: median tumor weight change, dose: 109.0 mg/kg/injection, schedule: Q01DX001 (ip), vehicle: saline); 46 % of control (endpoint: median tumor weight change, dose: 125.0 mg/kg/injection, schedule: Q01DX001 (ip), vehicle: saline); 42 % of control (endpoint: median tumor weight change, dose: 125.0 mg/kg/injection, schedule: Q01DX001 (ip), vehicle: suspension in saline). For the same compound, the T/C reads like this: (endpoint: median tumor weight change, dose: 165.0 mg/kg/injection, schedule: Q01DX001 (ip), vehicle: saline) 71 % of control; (endpoint: median tumor weight change, dose: 250.0 mg/kg/injection, schedule: Q01DX001 (ip), vehicle: saline) 50 % of control and 74 % of control; (endpoint: median tumor weight change, dose: 250.0 mg/kg/injection, schedule: Q01DX001 (ip), vehicle: suspension in saline) -28 % of control; (endpoint: median tumor weight change, dose: 379.0 mg/kg/injection, schedule: Q01DX001 (ip), vehicle: saline) 62 % of control.

On to `O=NN(CCCl)C(=O)NCCCl`, for which the T/C (endpoint: mean tumor weight (est.), dose: 7.5 mg/kg/injection, schedule: Q07DX003 (ip), vehicle: saline + alcohol) is 58 % of control; the T/C (endpoint: mean tumor weight (est.), dose: 12.5 mg/kg/injection, schedule: Q07DX003 (ip), vehicle: saline + alcohol) is 46 % of control; the T/C (endpoint: mean tumor weight (est.), dose: 15.0 mg/kg/injection, schedule: Q07DX003 (ip), vehicle: saline + alcohol) was 34 % of control; the T/C (endpoint: mean tumor weight, dose: 1.5 mg/kg/injection, schedule: Q01DX009 (ip), vehicle: saline) is 52 % of control; the T/C (endpoint: mean tumor weight, dose: 3.0 mg/kg/injection, schedule: Q01DX009 (ip), vehicle: saline) was 54 % of control; the T/C (endpoint: mean tumor weight, dose: 3.75 mg/kg/injection, schedule: Q07DX007 (ip), vehicle: saline + alcohol) was 113 % of control. The T/C (endpoint: mean tumor weight, dose: 6.25 mg/kg/injection, schedule: Q01DX009 (ip), vehicle: saline) is 26 % of control and 29 % of control; the T/C (endpoint: mean tumor weight, dose: 7.5 mg/kg/injection, schedule: Q07DX006 (ip), vehicle: saline + alcohol) was 62 % of control; the T/C (endpoint: mean tumor weight, dose: 7.5 mg/kg/injection, schedule: Q07DX007 (ip), vehicle: saline + alcohol) was 77 % of control; the T/C (endpoint: mean tumor weight, dose: 12.5 mg/kg/injection, schedule: Q07DX006 (ip), vehicle: saline + alcohol) is 33 % of control; the T/C (endpoint: mean tumor weight, dose: 12.5 mg/kg/injection, schedule: Q07DX006 (ip), vehicle: saline) is 5 % of control; the T/C (endpoint: mean tumor weight, dose: 15.0 mg/kg/injection, schedule: Q07DX006 (ip), vehicle: saline + alcohol) was 4 % of control. For the same compound, the T/C reads like this: (endpoint: mean tumor weight, dose: 15.0 mg/kg/injection, schedule: Q07DX007 (ip), vehicle: saline + alcohol) 60 % of control; (endpoint: median tumor weight (est.), dose: 1.5 mg/kg/injection, schedule: Q01DX005 (ip), vehicle: saline with Tween-80) 49 % of control; (endpoint: median tumor weight (est.), dose: 2.0 mg/kg/injection, schedule: Q04DX005 (ip), vehicle: saline with Tween-80) 99 % of control; (endpoint: median tumor weight (est.), dose: 2.0 mg/kg/injection, schedule: Q07DX005 (ip), vehicle: saline with Tween-80) 40 % of control and 56 % of control and 65 % of control; (endpoint: median tumor weight (est.), dose: 3.0 mg/kg/injection, schedule: Q01DX005 (ip), vehicle: saline with Tween-80) 69 % of control; (endpoint: median tumor weight (est.), dose: 4.0 mg/kg/injection, schedule: Q04DX005 (ip), vehicle: saline with Tween-80) 44 % of control. Also, the T/C is, setting by setting: (endpoint: median tumor weight (est.), dose: 6.0 mg/kg/injection, schedule: Q01DX005 (ip), vehicle: saline with Tween-80) 29 % of control; (endpoint: median tumor weight (est.), dose: 8.0 mg/kg/injection, schedule: Q04DX005 (ip), vehicle: saline with Tween-80) 10 % of control; (endpoint: median tumor weight (est.), dose: 8.0 mg/kg/injection, schedule: Q07DX005 (ip), vehicle: saline with Tween-80) 27 % of control and 35 % of control and 38 % of control; (endpoint: median tumor weight (est.), dose: 12.0 mg/kg/injection, schedule: Q01DX005 (ip), vehicle: saline with Tween-80) 2 % of control; (endpoint: median tumor weight (est.), dose: 16.0 mg/kg/injection, schedule: Q04DX005 (ip), vehicle: saline with Tween-80) 5 % of control; (endpoint: median tumor weight (est.), dose: 16.0 mg/kg/injection, schedule: Q07DX005 (ip), vehicle: saline with Tween-80) 1 % of control and 2 % of control and 18 % of control. Besides, the T/C (endpoint: median tumor weight change, dose: 7.81 mg/kg/injection, schedule: Q01DX001 (ip), vehicle: saline + alcohol) was 70 % of control; the T/C (endpoint: median tumor weight change, dose: 8.0 mg/kg/injection, schedule: Q01DX001 (ip), vehicle: saline + alcohol) was 32 % of control; the T/C (endpoint: median tumor weight change, dose: 15.62 mg/kg/injection, schedule: Q01DX001 (ip), vehicle: saline + alcohol) is 40 % of control; the T/C (endpoint: median tumor weight change, dose: 15.62 mg/kg/injection, schedule: Q01DX001 (ip), vehicle: saline with Tween-80) was 55 % of control; the T/C (endpoint: median tumor weight change, dose: 16.0 mg/kg/injection, schedule: Q01DX001 (ip), vehicle: saline + alcohol) was 31 % of control; the T/C (endpoint: median tumor weight change, dose: 31.0 mg/kg/injection, schedule: Q01DX001 (ip), vehicle: saline + alcohol) was 23 % of control. For the same compound, the T/C reads like this: (endpoint: median tumor weight change, dose: 31.25 mg/kg/injection, schedule: Q01DX001 (ip), vehicle: saline + alcohol) 31 % of control; (endpoint: median tumor weight change, dose: 31.25 mg/kg/injection, schedule: Q01DX001 (ip), vehicle: saline with Tween-80) 20 % of control; (endpoint: median tumor weight change, dose: 62.0 mg/kg/injection, schedule: Q01DX001 (ip), vehicle: saline + alcohol) -31 % of control; (endpoint: median tumor weight change, dose: 62.5 mg/kg/injection, schedule: Q01DX001 (ip), vehicle: saline + alcohol) 17 % of control; (endpoint: median tumor weight change, dose: 125.0 mg/kg/injection, schedule: Q01DX001 (ip), vehicle: saline + alcohol) -39 % of control.

Regarding `Nc1nc2c(ncn2C2OC(CO)C(O)C2N)c(=O)[nH]1` (stereo not given), the T/C runs as follows: (endpoint: median tumor weight (est.), dose: 4.5 mg/kg/injection, schedule: Q07DX005 (ip), vehicle: saline with Tween-80) 79 % of control; (endpoint: median tumor weight (est.), dose: 9.0 mg/kg/injection, schedule: Q07DX005 (ip), vehicle: saline with Tween-80) 99 % of control; (endpoint: median tumor weight (est.), dose: 36.0 mg/kg/injection, schedule: Q07DX005 (ip), vehicle: saline with Tween-80) 172 % of control; (endpoint: median tumor weight (est.), dose: 72.0 mg/kg/injection, schedule: Q07DX005 (ip), vehicle: saline with Tween-80) 106 % of control.

As to `CCOC(=O)c1c[nH]c2oc(/C=N/N3CC(CN4CCOCC4)OC3=O)cc2c1=O` (stereo not given), the T/C reads like this: under setting [1], 107 % of control; under setting [2], 87 % of control; under setting [3], 97 % of control; under setting [4], 155 % of control; under setting [5], 94 % of control.

As to `O=C(C#Cc1ccccc1)c1ccccc1`, the T/C was 64 % of control (endpoint: median tumor weight (est.), dose: 0.39 mg/kg/injection, schedule: Q07DX005 (ip), vehicle: saline with Tween-80); 68 % of control (endpoint: median tumor weight (est.), dose: 0.78 mg/kg/injection, schedule: Q07DX005 (ip), vehicle: saline with Tween-80); 68 % of control (endpoint: median tumor weight (est.), dose: 1.56 mg/kg/injection, schedule: Q07DX005 (ip), vehicle: saline with Tween-80); 47 % of control (endpoint: median tumor weight (est.), dose: 3.12 mg/kg/injection, schedule: Q07DX005 (ip), vehicle: Klucel (hydroxypropylcellulose) (HPC)); 53 % of control (endpoint: median tumor weight (est.), dose: 3.12 mg/kg/injection, schedule: Q07DX005 (ip), vehicle: saline with Tween-80); 67 % of control (endpoint: median tumor weight (est.), dose: 6.25 mg/kg/injection, schedule: Q07DX005 (ip), vehicle: saline with Tween-80). Also, where the note is “endpoint: median tumor weight (est.), dose: 12.5 mg/kg/injection, schedule: Q07DX005 (ip), vehicle: saline with Tween-80”, the T/C is 46 % of control.
